The first test has as its target 3-phosphoinositide-dependent protein kinase 1 (Homo sapiens, UniProt O15530). Kind of test: Inhibition of PDK1 (unknown origin) using AKT(Thr-308)-tide substrate.
Details: not given
The molecule `O=C(CC(c1ccccc1)C(C(=O)O)C(=O)O)c1ccc(C(F)(F)F)cc1` (stereo not given) yielded an AC50 of 2000 nM.

Tested on in the next test: not listed separately
Kind of test: Antiproliferative activity against human U87MG cells after 72 hrs. Type of test: functional, cell-based, U-87MG ATCC. Conditions: U-87 MG.
`O=C(N[C@@H](COc1ccc2[nH]c(=O)[nH]c2c1)c1ccccc1)c1cccn(Cc2ccc(F)c(F)c2)c1=O`: the half-inhibitory concentration (IC50) is more than 30 µM.

The target in the next test is T1, 3-phosphoinositide-dependent protein kinase 1 (Homo sapiens) (UniProt O15530).
T1 sequence (whole entry): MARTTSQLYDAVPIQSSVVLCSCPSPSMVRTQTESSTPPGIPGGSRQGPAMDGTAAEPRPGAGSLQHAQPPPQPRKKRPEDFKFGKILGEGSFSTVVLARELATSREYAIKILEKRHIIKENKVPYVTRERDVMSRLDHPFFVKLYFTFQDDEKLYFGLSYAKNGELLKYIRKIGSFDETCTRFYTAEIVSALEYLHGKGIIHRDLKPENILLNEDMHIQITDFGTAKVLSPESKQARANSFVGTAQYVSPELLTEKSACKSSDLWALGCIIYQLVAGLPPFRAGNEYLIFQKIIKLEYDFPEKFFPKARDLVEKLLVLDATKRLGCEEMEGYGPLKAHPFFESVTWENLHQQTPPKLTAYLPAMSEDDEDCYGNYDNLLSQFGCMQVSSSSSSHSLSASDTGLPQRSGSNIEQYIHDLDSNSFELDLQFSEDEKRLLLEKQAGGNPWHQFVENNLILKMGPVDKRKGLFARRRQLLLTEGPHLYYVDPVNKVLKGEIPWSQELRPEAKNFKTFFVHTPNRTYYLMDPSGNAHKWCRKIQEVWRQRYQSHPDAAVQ
In words: Inhibition of PDK1 (unknown origin) at 10 uM by FRET-based Z-lyte assay.
Details: not given
In turn, `O=C(CNC(=O)c1cccn(Cc2ccc(F)c(F)c2)c1=O)Nc1ccc2c(c1)/C(=C/c1cccs1)C(=O)N2` yielded an inhibition of 19%.

In turn, `O=C1Nc2ccc(NC(=O)[C@H](NC(=O)c3cccn(Cc4ccc(F)c(F)c4)c3=O)c3ccccc3)cc2/C1=C/c1ncc[nH]1` had an inhibition of 74%.

As for `O=C1Cc2cc(NC(=O)[C@H](NC(=O)c3cccn(Cc4ccc(F)c(F)c4)c3=O)c3ccccc3)ccc2N1`, the inhibition was less than 10%.

`O=C1Cc2cc(NC(=O)c3cccn(Cc4ccc(F)c(F)c4)c3=O)ccc2N1` came in with an inhibition of less than 10%.

`O=C1Nc2ccc(NC(=O)c3cccn(Cc4ccc(F)c(F)c4)c3=O)cc2/C1=C\c1ccc(F)cc1` showed an inhibition of less than 10%.

In turn, `O=C(CNC(=O)c1cccn(Cc2ccc(F)c(F)c2)c1=O)Nc1ccc2c(c1)/C(=C\c1ccc(F)cc1)C(=O)N2` came in with an inhibition of less than 10%.

Take `Cn1ccnc1/C=C1/C(=O)Nc2ccc(NC(=O)c3cccn(Cc4ccc(F)c(F)c4)c3=O)cc21`: the inhibition is less than 10%.

`O=C1Nc2ccc(NC(=O)[C@H](NC(=O)c3cccn(Cc4ccc(F)c(F)c4)c3=O)c3ccccc3)cc2/C1=C/c1cccs1` came in with an inhibition of less than 10%.

For `O=C1Nc2ccc(NC(=O)[C@H](NC(=O)c3cccn(Cc4ccc(F)c(F)c4)c3=O)c3ccccc3)cc2/C1=C\c1ccc(F)cc1`, the inhibition was less than 10%.

In turn, `O=C1Nc2ccc(NC(=O)c3cccn(Cc4ccc(F)c(F)c4)c3=O)cc2/C1=C/c1cnc[nH]1` yielded an inhibition of 64%.

`O=C(CNC(=O)c1cccn(Cc2ccc(F)c(F)c2)c1=O)Nc1ccc2c(c1)CC(=O)N2` had an inhibition of 57%.

Consider `O=C1Nc2ccc(NC(=O)c3cccn(Cc4ccc(F)c(F)c4)c3=O)cc2/C1=C/c1cccs1`, for which the inhibition is less than 10%.

For the molecule `O=C1Nc2ccc(NC(=O)[C@H](NC(=O)c3cccn(Cc4ccc(F)c(F)c4)c3=O)c3ccccc3)cc2/C1=C/c1cnc[nH]1`, the inhibition amounted to 95%.

The values are drawn from ChEMBL document CHEMBL3822377, “Locking PDK1 in DFG-out conformation through 2-oxo-indole containing molecules: Another tools to fight glioblastoma” (Eur J Med Chem, 2016).
